Calls of active or inactive are those of the source. No cut-off for these calls is given here. Positions of bridges follow the written chain, without caps; N, C: chain ends. Residues, ends and D or L forms follow the SMILES beside them.
Tests used:
[1] = target: T1, Urotensin-2 receptor (Rattus norvegicus) (UniProt P49684); experiment: Agonist activity at urotensin-2 receptor in Sprague-Dawley rat aortic rings assessed as KCl-induced vasoconstriction at 10^-5.5 M relative to control
T1 sequence (whole entry): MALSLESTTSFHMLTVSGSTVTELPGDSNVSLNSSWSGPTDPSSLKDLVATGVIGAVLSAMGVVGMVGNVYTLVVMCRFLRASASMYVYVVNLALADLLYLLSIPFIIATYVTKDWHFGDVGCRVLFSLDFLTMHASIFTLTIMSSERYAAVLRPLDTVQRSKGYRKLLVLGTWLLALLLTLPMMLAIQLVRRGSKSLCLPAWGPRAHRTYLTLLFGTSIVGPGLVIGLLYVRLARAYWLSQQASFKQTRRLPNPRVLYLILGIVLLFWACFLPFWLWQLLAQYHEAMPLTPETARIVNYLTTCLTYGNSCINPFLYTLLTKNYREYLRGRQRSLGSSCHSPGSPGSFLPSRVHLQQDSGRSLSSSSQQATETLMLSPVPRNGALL

[2] = target: T2, Urotensin-2 receptor (Rattus norvegicus, UniProt P49684); experiment: Agonist activity at urotensin-2 receptor in Sprague-Dawley rat aortic rings assessed as KCl-induced vasoconstriction
T2 sequence (P49684 whole entry): T1 sequence (whole entry)

[3] = target: T1, Urotensin-2 receptor (Rattus norvegicus); experiment: Agonist activity at urotensin-2 receptor in Sprague-Dawley rat aortic rings assessed as KCl-induced vasoconstriction at 3 X 10^-11 to 3 X 10^-6 M relative to control
[4] = target: T3, Urotensin-2 receptor (Homo sapiens, UniProt Q9UKP6); experiment: Displacement of [125I]-Urotensin-2 from human GPR14 expressed in CHO cells after 90 mins by gamma counting analysis; assay type: cell-based
T3 sequence (Q9UKP6 whole entry): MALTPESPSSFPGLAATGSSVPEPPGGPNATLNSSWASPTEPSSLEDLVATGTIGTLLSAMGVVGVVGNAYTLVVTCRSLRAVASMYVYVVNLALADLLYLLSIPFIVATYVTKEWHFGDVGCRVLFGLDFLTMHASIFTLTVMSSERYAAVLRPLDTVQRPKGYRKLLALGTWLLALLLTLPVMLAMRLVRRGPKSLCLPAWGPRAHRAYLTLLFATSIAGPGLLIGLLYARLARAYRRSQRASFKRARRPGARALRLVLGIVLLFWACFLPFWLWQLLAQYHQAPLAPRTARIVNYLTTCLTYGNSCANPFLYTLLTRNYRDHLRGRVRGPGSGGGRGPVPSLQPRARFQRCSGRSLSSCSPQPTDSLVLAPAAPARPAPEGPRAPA

| SMILES | Emax [1] | EC50 ([2]; read-out: EC50) | Emax [3] | EC50 ([2]; read-out: pEC50 (converted)) | further results |
| --- | --- | --- | --- | --- | --- |
| CC(C)[C@H](NC(=O)[C@@H]1CSSC[C@H](NC(=O)[C@H](C)N)C(=O)N[C@@H](Cc2ccccc2)C(=O)N2Cc3[nH]c4ccccc4c3C[C@@H]2C(=O)N[C@@H](CCCCN)C(=O)N[C@@H](Cc2ccc(O)cc2)C(=O)N1)C(=O)O | 42% | – | – | – | – |
| CC(C)[C@H](NC(=O)[C@@H]1CSSC[C@H](NC(=O)[C@H](C)N)C(=O)N[C@@H](Cc2ccccc2)C(=O)N2CCc3ccccc3[C@H]2C(=O)N[C@@H](CCCCN)C(=O)N[C@@H](Cc2ccc(O)cc2)C(=O)N1)C(=O)O | – | 22 nM | 126% | – | IC50 ([4]; read-out: IC50): 10 nM |
| CC(C)[C@H](NC(=O)[C@@H]1CSSC[C@H](NC(=O)[C@H](C)N)C(=O)N[C@@H](Cc2ccccc2)C(=O)N2CCc3ccccc3[C@H]2C(=O)N[C@@H](CCCN)C(=O)N[C@@H](Cc2ccc(O)cc2)C(=O)N1)C(=O)O | – | – | inactive | – | EC50 [2]: Not Active; IC50 ([4]; cho): Not Active |
| CC(C)[C@H](NC(=O)[C@@H]1CSSC(C)(C)[C@@H](NC(=O)[C@H](C)N)C(=O)N[C@@H](Cc2ccccc2)C(=O)N2CCc3ccccc3[C@H]2C(=O)N[C@@H](CCCCN)C(=O)N[C@@H](Cc2ccc(O)cc2)C(=O)N1)C(=O)O | – | – | inactive | – | – |
| CC(C)[C@H](NC(=O)[C@@H]1CSSC[C@H](NC(=O)[C@H](C)N)C(=O)N[C@@H](Cc2ccccc2)C(=O)N[C@@H](Cc2c[nH]c3ccccc23)C(=O)N[C@@H](CCCCN)C(=O)N[C@@H](Cc2ccc(O)cc2)C(=O)N1)C(=O)O | – | 7 nM | 100% | 8.13 nM | – |
| CC(C)[C@H](NC(=O)[C@@H]1CSSC[C@H](NC(=O)[C@H](C)N)C(=O)N[C@@H](Cc2ccccc2)C(=O)N[C@@H](C(C)(C)C)C(=O)N[C@@H](CCCCN)C(=O)N[C@@H](Cc2ccc(O)cc2)C(=O)N1)C(=O)O | – | – | inactive | – | EC50 [2]: Not Active; IC50 ([4]; read-out: pIC50 (converted)): > 10000 nM |
| CC(C)[C@H](NC(=O)[C@@H]1CSSC[C@H](NC(=O)[C@H](C)N)C(=O)N[C@@H](Cc2ccccc2)C(=O)N2Cc3[nH]c4ccccc4c3C[C@H]2C(=O)N[C@@H](CCCCN)C(=O)N[C@@H](Cc2ccc(O)cc2)C(=O)N1)C(=O)O | – | – | 139% | – | – |
| CC(C)[C@H](NC(=O)[C@@H]1CSSC[C@H](NC(=O)[C@H](C)N)C(=O)N[C@@H](Cc2ccccc2)C(=O)N[C@@H](CC2CCCCC2)C(=O)N[C@@H](CCCCN)C(=O)N[C@@H](Cc2ccc(O)cc2)C(=O)N1)C(=O)O | 77% | – | – | > 1000 nM | – |
| CC(C)[C@H](NC(=O)[C@@H]1CSSC[C@H](NC(=O)[C@H](C)N)C(=O)N[C@@H](Cc2ccccc2)C(=O)N[C@@H](c2ccccc2)C(=O)N[C@@H](CCCCN)C(=O)N[C@@H](Cc2ccc(O)cc2)C(=O)N1)C(=O)O | – | 251 nM | 102% | – | – |
| CC(C)[C@H](NC(=O)[C@@H]1CSSC[C@H](NC(=O)[C@H](C)N)C(=O)N[C@@H](Cc2ccccc2)C(=O)N[C@@H](Cc2cccc3ccccc23)C(=O)N[C@@H](CCCCN)C(=O)N[C@@H](Cc2ccc(O)cc2)C(=O)N1)C(=O)O | – | 54 nM | 86% | – | IC50 ([4]; read-out: IC50): 17 nM |
| CC(C)[C@H](NC(=O)[C@@H]1CSSC[C@H](NC(=O)[C@H](CC(=O)O)NC(=O)[C@@H]2CCCN2C(=O)[C@@H](NC(=O)[C@@H](N)CCC(=O)O)[C@@H](C)O)C(=O)N[C@@H](Cc2ccccc2)C(=O)N[C@@H](Cc2c[nH]c3ccccc23)C(=O)N[C@@H](CCCCN)C(=O)N[C@@H](Cc2ccc(O)cc2)C(=O)N1)C(=O)O [HUMAN UROTENSIN II] | – | 1 nM | – | 0.832 nM | – |
| CC(C)[C@H](NC(=O)[C@@H]1CSSC[C@H](NC(=O)[C@H](C)N)C(=O)N[C@@H](Cc2ccccc2)C(=O)N[C@@H](C(c2ccccc2)c2ccccc2)C(=O)N[C@@H](CCCCN)C(=O)N[C@@H](Cc2ccc(O)cc2)C(=O)N1)C(=O)O | 23% | – | – | > 1000 nM | IC50 ([4]; read-out: pIC50 (converted)): 282 nM |
| CC(C)[C@H](NC(=O)[C@@H]1CSSC[C@H](NC(=O)[C@H](C)N)C(=O)N[C@@H](Cc2ccccc2)C(=O)N[C@@H](Cc2ccc(I)cc2)C(=O)N[C@@H](CCCCN)C(=O)N[C@@H](Cc2ccc(O)cc2)C(=O)N1)C(=O)O | 92% | – | – | – | IC50 ([4]; read-out: IC50): 58 nM |
| CC(C)[C@H](NC(=O)[C@@H]1CSSC[C@H](NC(=O)[C@H](C)N)C(=O)N[C@@H](Cc2ccccc2)C(=O)N[C@H](c2ccccc2)C(=O)N[C@@H](CCCCN)C(=O)N[C@@H](Cc2ccc(O)cc2)C(=O)N1)C(=O)O | – | 117 nM | 116% | – | IC50 ([4]; read-out: pIC50 (converted)): 27.5 nM |
| CC(C)[C@H](NC(=O)[C@@H]1CSSC[C@H](NC(=O)[C@H](C)N)C(=O)N[C@@H](Cc2ccccc2)C(=O)N2Cc3ccccc3C[C@H]2C(=O)N[C@@H](CCCCN)C(=O)N[C@@H](Cc2ccc(O)cc2)C(=O)N1)C(=O)O | 43% | – | – | > 1000 nM | IC50 ([4]; read-out: pIC50 (converted)): > 10000 nM |
| CC(C)[C@H](NC(=O)[C@@H]1CSSC[C@H](NC(=O)[C@H](C)N)C(=O)N[C@@H](Cc2ccccc2)C(=O)N2Cc3[nH]c4ccccc4c3C[C@H]2C(=O)N[C@@H](CCCN)C(=O)N[C@@H](Cc2ccc(O)cc2)C(=O)N1)C(=O)O | – | – | inactive | – | EC50 [2]: Not Active; IC50 ([4]; read-out: pIC50 (converted)): > 10000 nM |
| CC(C)[C@H](NC(=O)[C@@H]1CSSC[C@H](NC(=O)[C@H](C)N)C(=O)N[C@@H](Cc2ccccc2)C(=O)N[C@H](C(C)(C)C)C(=O)N[C@@H](CCCCN)C(=O)N[C@@H](Cc2ccc(O)cc2)C(=O)N1)C(=O)O | 64% | – | – | > 1000 nM | IC50 ([4]; read-out: pIC50 (converted)): > 1000 nM |
| CC(C)[C@H](NC(=O)[C@@H]1CSSC[C@H](NC(=O)[C@H](C)N)C(=O)N[C@@H](Cc2ccccc2)C(=O)N2Cc3ccccc3C[C@@H]2C(=O)N[C@@H](CCCCN)C(=O)N[C@@H](Cc2ccc(O)cc2)C(=O)N1)C(=O)O | – | 259 nM | 128% | 832 nM | – |
| CC(C)[C@H](NC(=O)[C@@H]1CSSC[C@@H](NC(=O)[C@H](CC(=O)O)NC(=O)[C@H]2CCCN2C(=O)[C@@H](NC(=O)[C@@H](N)CCC(=O)O)[C@@H](C)O)C(=O)N[C@H](Cc2ccccc2)C(=O)N[C@@H](Cc2c[nH]c3ccccc23)C(=O)N[C@H](CCCCN)C(=O)N[C@@H](Cc2ccc(O)cc2)C(=O)N1)C(=O)O | – | – | 117% | – | – |
| CC(C)[C@H](NC(=O)[C@@H]1CSSC[C@H](NC(=O)[C@H](C)N)C(=O)N[C@@H](Cc2ccccc2)C(=O)N[C@@H]2Cc3c([nH]c4ccccc34)CN(C2=O)[C@@H](CCCCN)C(=O)N[C@@H](Cc2ccc(O)cc2)C(=O)N1)C(=O)O | – | 159 nM | 148% | 162 nM | IC50 ([4]; read-out: IC50): 60 nM |
| CC(C)[C@H](NC(=O)[C@@H]1CSSC[C@H](NC(=O)[C@H](C)N)C(=O)N[C@@H](Cc2ccccc2)C(=O)N2CCc3ccccc3[C@@H]2C(=O)N[C@@H](CCCCN)C(=O)N[C@@H](Cc2ccc(O)cc2)C(=O)N1)C(=O)O | – | 21 nM | 113% | – | IC50 ([4]; read-out: IC50): 21 nM |
| CC(C)[C@H](NC(=O)[C@@H]1CSSC[C@H](NC(=O)[C@H](C)N)C(=O)N[C@@H](Cc2ccccc2)C(=O)N[C@H](Cc2cccc3ccccc23)C(=O)N[C@@H](CCCCN)C(=O)N[C@@H](Cc2ccc(O)cc2)C(=O)N1)C(=O)O | 34% | 825 nM | – | – | – |
| CC(C)[C@H](NC(=O)[C@@H]1CSSC[C@H](NC(=O)[C@H](C)N)C(=O)N[C@@H](Cc2ccccc2)C(=O)N[C@H]2Cc3c([nH]c4ccccc34)CN(C2=O)[C@@H](CCCCN)C(=O)N[C@@H](Cc2ccc(O)cc2)C(=O)N1)C(=O)O | – | 181 nM | 51% | 380 nM | IC50 ([4]; read-out: IC50): 808 nM |
| CC(C)[C@H](NC(=O)[C@@H]1CSSC[C@H](NC(=O)[C@H](CC(=O)O)NC(=O)[C@@H]2CCCN2C(=O)[C@@H](NC(=O)[C@@H](N)CCC(=O)O)[C@@H](C)O)C(=O)N[C@@H](Cc2ccccc2)C(=O)N2CCC[C@H]2C(=O)N[C@@H](CCCCN)C(=O)N[C@@H](Cc2ccc(O)cc2)C(=O)N1)C(=O)O (H-ETPDCFPKYCV-OH; disulfide 5-10) | 69% | – | – | – | – |
| CC(C)[C@H](NC(=O)[C@@H]1CSSC(C)(C)[C@H](NC(=O)[C@H](C)N)C(=O)N[C@@H](Cc2ccccc2)C(=O)N2CCc3ccccc3[C@H]2C(=O)N[C@@H](CCCCN)C(=O)N[C@@H](Cc2ccc(O)cc2)C(=O)N1)C(=O)O | – | – | – | – | EC50 [2]: Not Active |

Reference: ChEMBL document CHEMBL3102770, “Development and pharmacological characterization of conformationally constrained urotensin II-related peptide agonists” (J Med Chem, 2013)
